Here are results for four compounds from patent US8178579B2, “Dioxanes and uses thereof” (President and Fellows of Harvard College, priority 2001, dated 2012).

The test system of one series is HeLa cells. In words: high throughput microscopy of HeLa cells. The format is cell-based. The note with it: single-compound assays. The text has this:
The cellular basis of these phenotypes has not been investigated. No phenotypes consistent with mitotic arrest were observed.

Series [1] has as its target T1, Ure2p (Saccharomyces cerevisiae, UniProt P23202).
T1 construct: endogenous in cells; host or cells: yeast strain DB26-3A (MAT-a ura3-52 ade2 PUT1-lacZ)
T1 sequence (P23202 1-354): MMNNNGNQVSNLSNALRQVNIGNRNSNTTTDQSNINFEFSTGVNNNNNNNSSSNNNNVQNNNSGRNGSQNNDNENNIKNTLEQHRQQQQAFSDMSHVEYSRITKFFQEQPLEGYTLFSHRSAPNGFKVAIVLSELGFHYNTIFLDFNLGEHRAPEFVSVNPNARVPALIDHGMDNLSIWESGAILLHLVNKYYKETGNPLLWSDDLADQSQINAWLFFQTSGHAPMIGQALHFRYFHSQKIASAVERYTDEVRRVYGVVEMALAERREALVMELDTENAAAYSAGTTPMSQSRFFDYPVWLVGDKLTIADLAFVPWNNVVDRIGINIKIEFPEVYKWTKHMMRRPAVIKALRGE
In words: surface plasmon resonance (BIAcore 3000) binding to immobilized Ure2p. Set-up: species or system yeast. To be noted: PBS/Tween-20 with 10% DMF, read-out: equilibrium dissociation constant for binding to Ure2p. The method, then:
(§1) FIG. 24 depicts studies in vivo, dose response and structure-activity relationships of uretupamine. (A) A yeast strain (DB26-3A) growing in YPD medium expressing a PUT1-lacZ reporter was treated with 50 nM rapamycin or with a compound that had been detected to bind to labelled Ure2p on a small-molecule microarray. After 90 min of treatment at 30° C., a standard liquid b-galactosidase assay was performed. Data are expressed in fold Miller units compared with treatment with 50 nM rapamycin for 90 minutes. DB26-3A (MAT-a ura3-52 ade2 PUT1-lacZ) was a gift from M. Brandriss. Vehicle: samples treated with N,N-dimethylformamide (DMF), the vehicle into which library compounds were dissolved (B): Uretupamine A was resynthesized and tested in the b-galactosidase assay by using the PUT1-lacZ reporter at the concentrations indicated for 60 min at 30 C in YPD medium. (C) Compounds derived from the uretupamine A structure were synthesized to explore structure-activity relationships. Listed are b-galactosidase assay results of treatment with each compound at 100 μM (asterisk designates 50 μM) for 60 min at 30 C in YPD medium. Data are in percentage Miller units compared with treating with 50 nM rapamycin for 60 min. […] (D) Binding of uretupamine B to Ure2p was determined by using surface plasmon resonance (BIAcore 3000) to have a dissociation constant of 7.5 μM. […]
(In SPR one partner is held on a chip, and binding of the other changes the refractive index at the surface.)

Series [2] is described as follows: solubility in yeast medium. The class given is physicochemical. To be noted: higher concentrations.
Series [3] addresses T1, Ure2p. In words: PUT1-lacZ reporter β-galactosidase assay. The format is cell-based. To be noted: yeast in YPD, 30 °C, 60-90 min; rapamycin 50 nM. The procedure:
as §1

Another series relates to Ure2p-controlled genes. In words: whole-genome transcription profiling of yeast strains. The note with it: 100 μM, 30 min. The format is cell-based. The procedure: FIG. 25 depicts transcription profiling of treatment with uretupamine. (A) The left microarray corresponds to wild-type cells (PM38) treated with vehicle (DMF) versus wild type (w.t.) cells treated for 30 min with uretupamine A at 100 μM. The right microarray corresponds to ure2Δ cells (PH2) treated with vehicle versus ure2Δ cells treated for 30 min with uretupamine A at 100 μM. Profiles were obtained as described (Hardwick et al. Proc. Natl. Acad. Sci. USA 1999, 96, 14866-14870). At the right are shown specific gene inductions of some URE2-dependent genes from the microarrays. PM38 (MATaleu2-3,112 ura3-52), PM71 (MA4Taleu2-3, 112 ura3-52 gln3Δ5::LEU2), MS221 (MATaura3-52 nil1::hisG), PH2 (MATaleu2-3, 112 ura3-52 ure2Δ12::URA3) were gifts from B. Magasanik and M. Brandriss. (B) The transcription profiles of wild-type cells (PM38), ure2Δ cells (PH2), gln3Δ cells (PM71) and nil1Δ cells (MS221) grown in YPD medium treated for 30 min with 100 μM uretupamine B were obtained. The geometric means of gene inductions of the sets listed are shown. (C) An analysis was performed based on treating individual profiles as high-dimensional vectors and then examining the ratios of their magnitudes as a measure of relative activity (Shamji et al. Curr. Biol. 2000, 10, 1574-1581; Kuruvilla et al. Genome Biol. 2002, 3(3), 0011.1-0011.11).
To determine the precise effects and specificity of uretupamine, whole-genome transcription profiling was used in wild-type cells as well as an otherwise isogenic ure2D strain-a ‘targetless’ strain (Marton et al. Nature Med 1998, 4, 1293-1301). […] The expression of other genes (including GAP1, MEP2, AGP1, BAT2 and DAL5) controlled by Ure2p was essentially unchanged (FIG. 25A,B).

A further series has as its target T2, HDAC1 (Homo sapiens, UniProt Q13547).
T2 construct: made in house; host or cells: TAg-Jurkat cells, transient transfection, then immunoprecipitation
In words: HDAC assay, [3H]acetate-incorporated histones with immunoprecipitated FLAG-tagged HDAC1. The note with it: calculated IC50, data in duplicate, at least two experiments; read-out: IC50 against HDAC1. The class given is biochemical. The method, then: (§2) Cell culture and Transfections. TAg-Jurkat cells were transfected by electroporation with 5 μg of FLAG-epitope-tagged pBJ5 constructs (as described in ref. 5c) for expression of recombinant proteins. Cells were harvested 48 h posttransfection.
HDAC assays. [^3H]Acetate-incorporated histones were isolated from butyrate-treated HeLa cells by hydroxyapatite chromatography (as described in Tong, et al. Nature 1997, 395, 917-921.) Immunoprecipitates were incubated with 1.4 μg (10,000 dpm) histones for 3 h at 37° C. HDAC activity was determined by scintillation counting of the ethyl acetate-soluble [^3H]acetic acid (as described in Taunton, et al., Science 1996, 272, 408-411). Compounds were added in DMSO such that final assay concentrations were 1% DMSO. IC50s were calculated using Prism 3.0 software. Curve fitting was done without constraints using the program's Sigmoidal-Dose Response parameters. All data points were acquired in duplicate and IC50s are calculated from the composite results of at least two separate experiments.

The target in the next series is T3, HDAC6 (Homo sapiens, UniProt Q9UBN7).
T3 sequence (Q9UBN7 1-1215): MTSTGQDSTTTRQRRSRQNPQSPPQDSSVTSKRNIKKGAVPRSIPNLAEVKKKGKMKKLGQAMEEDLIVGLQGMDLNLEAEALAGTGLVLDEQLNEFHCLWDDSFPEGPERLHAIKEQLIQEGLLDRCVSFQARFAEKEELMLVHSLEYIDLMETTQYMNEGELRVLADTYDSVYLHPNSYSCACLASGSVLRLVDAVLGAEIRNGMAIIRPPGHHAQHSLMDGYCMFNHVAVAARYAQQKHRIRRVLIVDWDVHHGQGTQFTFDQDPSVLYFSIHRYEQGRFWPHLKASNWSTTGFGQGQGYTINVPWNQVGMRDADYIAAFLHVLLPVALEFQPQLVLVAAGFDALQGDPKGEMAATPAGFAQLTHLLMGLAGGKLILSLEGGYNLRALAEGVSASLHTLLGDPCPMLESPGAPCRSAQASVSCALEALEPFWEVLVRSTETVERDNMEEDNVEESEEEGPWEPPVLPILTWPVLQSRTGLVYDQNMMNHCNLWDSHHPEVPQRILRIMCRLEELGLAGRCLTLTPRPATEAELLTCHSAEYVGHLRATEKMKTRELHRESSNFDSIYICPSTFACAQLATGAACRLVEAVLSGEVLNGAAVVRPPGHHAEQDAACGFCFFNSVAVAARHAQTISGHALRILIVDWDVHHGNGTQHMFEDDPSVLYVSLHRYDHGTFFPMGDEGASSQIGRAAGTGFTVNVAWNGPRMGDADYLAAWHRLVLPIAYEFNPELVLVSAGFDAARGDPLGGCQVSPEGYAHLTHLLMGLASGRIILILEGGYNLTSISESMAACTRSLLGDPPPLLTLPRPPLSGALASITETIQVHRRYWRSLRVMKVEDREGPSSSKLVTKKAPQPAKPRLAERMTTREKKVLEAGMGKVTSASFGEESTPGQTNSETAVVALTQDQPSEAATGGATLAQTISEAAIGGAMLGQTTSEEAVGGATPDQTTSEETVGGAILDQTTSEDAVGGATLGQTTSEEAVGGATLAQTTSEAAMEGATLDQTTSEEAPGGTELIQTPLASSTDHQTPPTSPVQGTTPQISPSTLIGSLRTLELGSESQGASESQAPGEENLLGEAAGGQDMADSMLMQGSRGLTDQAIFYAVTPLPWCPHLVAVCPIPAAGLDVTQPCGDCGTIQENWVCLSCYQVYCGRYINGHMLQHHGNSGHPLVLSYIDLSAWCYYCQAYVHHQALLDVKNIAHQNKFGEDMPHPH
The experiment in a line: HDAC assay, [3H]acetate-incorporated histones with immunoprecipitated FLAG-tagged HDAC6 (HDAC6F). The class given is biochemical. Set-up: made in house; host or cells: TAg Jurkat cells, transient transfection, anti-FLAG M2 immunoprecipitation. To be noted: calculated IC50, data in duplicate, at least two experiments; read-out: IC50 against HDAC6. The procedure: as §2
HDAC assays. […] Compounds were added in DMSO such that final assay concentrations were 1% DMSO. IC50s were calculated using Prism 3.0 software. Curve fitting was done without constraints using the program's Sigmoidal-Dose Response parameters. All data points were acquired in duplicate and IC50s are calculated from the composite results of at least two separate experiments.
Tubulin and MAPs were isolated from bovine brain as described [See http://mitchison.med.harvard.edu/protocols/tubprep.html]. Whole brain and fractions from phosphocellulose chromatography were blotted for HDAC6 and acetylated α-tubulin. Cultured hippocampal neurons from dissociated 1-day old rat brains were transfected with an enhanced green fluorescent protein (EGFP)-actin construct at 4-5 days using the calcium phosphate method [E. N. Star, D. J. Kwiatkowski and V. N. Murthy, Nat. Neurosci. […] K. Miranti and M. E. Greenberg, J. Neurosci. […] Transfected cultures were allowed to grow for at least 48 h before the addition of experimental compounds.
[^3H]Acetate-incorporated histones were isolated from butyrate-treated HeLa cells as described [J. Taunton, C. […] Immunoprecipitates were incubated with acetylated histones and HDAC activity determined by scintillation counting as described [J. Taunton, C. […] TDAC assays were performed with immunoprecipitates using MAP-stabilized microtubules polymerized from MAP-rich tubulin fraction as described [C. […] Reactions were incubated (2 h) at 37° C., then incubated on ice (15 min).

T2 sequence (Q13547 whole entry): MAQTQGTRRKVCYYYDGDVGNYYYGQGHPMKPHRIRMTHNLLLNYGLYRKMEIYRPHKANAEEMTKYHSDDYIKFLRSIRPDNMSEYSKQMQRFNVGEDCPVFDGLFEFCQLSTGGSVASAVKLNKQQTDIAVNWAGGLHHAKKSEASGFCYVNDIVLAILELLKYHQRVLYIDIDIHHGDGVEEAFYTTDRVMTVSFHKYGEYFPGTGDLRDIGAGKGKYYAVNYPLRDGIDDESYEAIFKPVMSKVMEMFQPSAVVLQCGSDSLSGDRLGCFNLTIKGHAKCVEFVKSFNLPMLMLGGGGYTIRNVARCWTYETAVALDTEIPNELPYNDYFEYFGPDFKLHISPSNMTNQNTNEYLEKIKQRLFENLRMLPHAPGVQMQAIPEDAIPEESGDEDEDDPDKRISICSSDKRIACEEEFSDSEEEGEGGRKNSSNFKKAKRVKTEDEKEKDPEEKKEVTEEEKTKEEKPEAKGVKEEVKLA

Turning to `O=S(=O)(NCc1ccc(C2O[C@H](CSc3ccc(O)cc3)C[C@H](c3ccc(CO)cc3)O2)cc1)c1ccccc1` (mixture of isomers) [compound 12, (±)-N-[[4-(4R,6S)-4-[4-(hydroxymethyl)phenyl]-6-[[4-hydroxyphenyl)thio]methyl]-1,3-dioxan-2-yl]phenyl]methyl-benzenesulfonamide], in the series with HeLa cells, the “phenotype in HeLa cells by microscopy” value is “altered actin staining phenotype”.

On to `NCc1ccc([C@@H]2O[C@H](CSc3nc(-c4ccccc4)c(-c4ccccc4)o3)[C@@H](c3ccccc3)[C@H](c3ccc(CO)cc3)O2)cc1` (relative stereo) [uretupamine A], for which the Kd at Ure2p [1] was 18.1 µM. The “solubility in yeast medium” value in series [2] is “poor solubility at higher concentrations in yeast medium”. Also, the “activation of PUT1-lacZ reporter” value at Ure2p [3] is listed as “gave a concentration dependent dose response that at higher concentrations approached the levels of reporter gene activation induced by rapamycin”. Moreover, in the series with Ure2p-controlled genes, the “gene induction in ure2Δ strain” value is “little or no effect on either set of genes” and the “gene induction in wild-type cells” value is given as “upregulated only a subset of genes”.

Regarding `NCc1ccc([C@@H]2O[C@H](CSc3nc(-c4ccccc4)c(-c4ccccc4)o3)C[C@H](c3ccc(CO)cc3)O2)cc1` (relative stereo) [uretupamine B], the Kd on Ure2p [1] came out at 7.5 µM. Moreover, the “solubility in yeast medium” value in series [2] is reported as “more soluble derivative”. Moreover, on Ure2p [3], the “activation of PUT1-lacZ reporter” value is given as “more potent than uretupamine A”. Besides, in the series on Ure2p-controlled genes, the “gene induction in gln3Δ strain” value is listed as “deleting GLN3 had little effect on the actions of uretupamine”, the “gene induction in nil1Δ strain” value is listed as “deleting NIL1 abrogated its actions”, the “gene induction in ure2Δ strain” value is reported as “little or no effect on either set of genes” and the “gene induction in wild-type cells” value is given as “upregulated only a subset of genes”.

`Cc1ccc(S(=O)(=O)N[C@@H](Cc2ccccc2)C(=O)Nc2cccc(C3O[C@H](CN4CCC(O)(c5ccc(Cl)cc5)CC4)[C@H](C)[C@H](c4ccc(CO)cc4)O3)c2)cc1` (stereo partly shown) [compound 11]: the half-maximal inhibitory concentration (IC50) on HDAC1 and at HDAC6 was greater than 50 µM in each case. The “phenotype in HeLa cells by microscopy” value in the series with HeLa cells is reported as “cell detachment”.
